Reference: US11286236B2, “Compound, agent and composition for the suppression of cancer growth” (Vector Vitale IP LLC, priority 2018, dated 2022)
Counter-ions that a name gives are not always drawn.

What was measured:
Assay type in all cases: cell-based
[1] = test system: Mouse B16 melanoma cells (MM-4 cell line); test: Cytotoxic/cytostatic activity of E2+85Rbe and antitumor drug added simultaneously
Experimental: The effects of the complex action of various doses of the investigated substances were evaluated using the concept of synergistic, additive and antagonistic effects of the drugs. The mathematics are detailed below. […] The effects were calculated using the Chou-Talalay method according to the following equation (“CI” refers to the “combination index”) (see T.-C. […] Where both the ^85Rb-enriched rubidium salt (referred to as “E2+^85Rbe”) and an AD were administered, they were administered simultaneously.

[2] = test system: Mouse melanoma cells (MM-4 cell line); test: Cytotoxic effect on melanoma cells, single agents (crystal violet)
Experimental: Materials and Methods: Mouse melanoma cells (MM-4 cell line) were seeded into 96-well plates (TPP, Italy) in DMEM (High Glucose w/L-Glutamine w/o Sodium Pyruvate; Biowest, France) supplemented with 10% newborn calf serum (Biowest, France) and […] gentamicin (Sigma, USA) at a seeding density of 5×10^4 cells/ml. The cells were then cultured in an incubator with a humidified atmosphere of 5% CO2 in air at 37° C. 24 hours after the cells were seeded, a compound according to the invention that comprises ^85Rb-enriched rubidium salt of N-benzoyl-N′-(4-toluenesulfonyl)-o-phenylenediamine of formula I was added into the appropriate wells. ^85Rbe-E2 was used at the following doses: 2.0 μg/ml, 1.0 μg/ml, 0.5 μg/ml (each is the final concentration of ^85Rbe after addition to the well). The cytotoxic effect was determined by counting the number of live cells observed after treatment, expressed as a percentage of the number of live cells observed/counted in the control (cells seed in the well and not treated). Control cells were not treated. For each concentration, the experiment was carried out twice. The effects of the drugs were evaluated visually, which allowed us to examine the morphological pattern of the cytotoxic action of the drugs, and by staining the cells with crystal violet, followed by OD measurement at an excitation wavelength of 540 nm using a MultiScan spectrophotometer. For comparison, a parallel experiment was carried out with the use of a known antitumor drug cisplatin and a compound of rubidium salt of N-benzoyl-N′-(4-toluenesulfonyl)-o-phenylenediamine of formula I which comprised a naturally-abundant mixture of isotopes of rubidium instead of being enriched for the ^85Rb isotope.

[3] = test system: Mouse melanoma cells (MM-4 cell line); test: Cytotoxic effect of E2+85Rbe and antitumor drug added 24 hours apart
Experimental: The effectiveness of the method of the invention that comprises administering antitumor drugs and ^85Rb-enriched rubidium salt of N-benzoyl-N-(4-toluenesulfonyl)-o-phenylenediamine of formula I was measured in the experiment. […] Both orders were tested: AD administered first (Scheme 2, below), and AD administered second (Scheme 1, below).
Materials and Methods: Mouse melanoma cells (MM-4 cell line) were seeded into 96-well plates (TPP, Italy), in DMEM (Biowest, France) supplemented with 10% newborn calf serum (Biowest, France) and […] gentamicin (Sigma, USA) at a seeding density of 5×10^4 cells/ml. The cells were then cultured in an incubator with a humidified atmosphere of 5% CO2 in air at 37° C. The experiment was carried out in accordance with the three schemes given below. The experiment was started 24 hours after the cells were seeded. For this purpose, the agents used in the method were introduced into the appropriate wells. The following schemes of introduction were used for the study:
Scheme 1) The ^85Rb-enriched rubidium salt of N-benzoyl-N′-(4-toluenesulfonyl)-o-phenylenediamine of formula I was introduced at the first stage in the following amounts: 2.0 μg/ml, 1.0 μg/ml, 0, 5 μg/ml, and one antitumor drug was introduced at the second stage (after 24 hours).
Scheme 2) An AD was introduced at the first stage at doses as indicated in Scheme 1 above and ^85Rb-enriched rubidium salt of N-benzoyl-N′-(4-toluenesulfonyl)-o-phenylenediamine of formula I was introduced at the second stage (after 24 hours) at the following doses: 2.0 μg/ml, 1.0 μg/ml, 0.5 μg/ml.
After all the agents were added into the wells, the cells were incubated at 37° C. and 5% CO2 for another 72 hours (96 hours in total after the cells were seeded).
As in example 2, the cytotoxic effect was determined as the percentage of the cell number with respect to the control after their treatment in accordance with the claimed method. The effects of the drugs were evaluated visually, which allowed us to examine the morphological pattern of the cytotoxic action of the drugs, and by staining the cells with crystal violet, followed by OD measurement at an excitation wavelength of 540 nm using a MultiSkan microplate spectrophotometer.
The effects of the complex action of various doses of the investigated substances were evaluated using the concept of synergistic, additive and antagonistic effects of the drugs, as for Example 2, and calculating CI as described in Example 2.
Each table sets forth the % of MM-4 cells that survived in the presence of the drug doses indicated in the in vitro experiments described above, expressed as a percentage of the cells in the control wells.

[4] = test system: Mouse Bone Marrow Cells; test: Cytotoxic/cytostatic effects on mouse bone marrow cells (MTT assay)
Experimental: In Vitro Assessment of Cytotoxic/Cytostatic Effects of Experimental Compound ^85Rbe-E2 on Mouse Bone Marrow Cells
Proliferative and metabolic activity of cells was determined by the colorimetric method.
The metabolic activity of the cells (i.e., the number of living cells) was assessed by MTT staining.
24 hours after the last reagent, the cells were seeded at a concentration of 1×10^4 cells/well in wells of a 96-well plate in complete DMEM nutrient medium with 10% FBS and 40 μg/ml gentamicin. The cells were cultured in a humidified atmosphere at 5% CO2 and 37° C. for 24 hours. After 24 hours, various doses of experimental substances were added to the respective wells. The cells were incubated at 37° C. and 5% CO2 for an additional 72 hours.
Upon completion of the incubation with the preparations, the proliferative and metabolic activity of the cells in the experiment was evaluated by the colorimetric method by staining MTT cells:
10 μl of the MTT solution (5 mg/ml of the dye in phosphate-buffered saline) was added to each well of the plate; the plate was incubated in a CO2 incubator at 37° C. for 3 hours. After that, the medium was removed from the wells, and the formed tetraformazan crystals were dissolved in 100 μl of dimethylsulfoxide.
When MTT was used, the results were evaluated using a multi-well spectrophotometer at an excitation wavelength of 540 nm. The percentage of viable cells was calculated by the formula: IR=(A540(experiment)/A540(control))×100%.

## Cc1ccc(S(=O)(=O)Nc2ccccc2NC(=O)c2ccccc2)cc1 [^85Rbe − E2, ^85Rb-enriched rubidium salt of N-benzoyl-N′-(4-toluenesulfonyl)-o-phenylenediamine]
[1]; E2+85Rbe 0.5 μg/ml alone
  % surviving MM-4 cells: 32.3 ± 0.7%
[1]; E2+85Rbe 1 μg/ml alone
  % surviving MM-4 cells: 8.3 ± 0.5%
[1]; E2+85Rbe 2 μg/ml alone
  % surviving MM-4 cells: 6.4 ± 0.3%
[2]; 0.5 μg/ml of rubidium (85Rbe or Rb)
  Number of cells after their treatment with the drug, %: 32.3 ± 0.7%
[2]; 1.0 μg/ml of rubidium (85Rbe or Rb)
  Number of cells after their treatment with the drug, %: 8.3 ± 0.5%
[2]; 2.0 μg/ml of rubidium (85Rbe or Rb)
  Number of cells after their treatment with the drug, %: 6.4 ± 0.3%
[3]; E2+85Rbe 0.5 μg/ml alone, first stage
  % surviving MM-4 cells: 32.3 ± 0.7%
[3]; E2+85Rbe 0.5 μg/ml alone, second stage (24 h later)
  % surviving MM-4 cells: 51 ± 1%
[3]; E2+85Rbe 1 μg/ml alone, first stage
  % surviving MM-4 cells: 8.3 ± 0.5%
[3]; E2+85Rbe 1 μg/ml alone, second stage (24 h later)
  % surviving MM-4 cells: 19 ± 0.5%
[3]; E2+85Rbe 2 μg/ml alone, first stage
  % surviving MM-4 cells: 6.4 ± 0.3%
[3]; E2+85Rbe 2 μg/ml alone, second stage (24 h later)
  % surviving MM-4 cells: 17.7 ± 0.8%
[4]; 1.25 μg/ml
  Metabolic activity of cells, %: 119.1 ± 0.2%
[4]; 2.5 μg/ml
  Metabolic activity of cells, %: 97.4 ± 1.4%
[4]; 5 μg/ml
  Metabolic activity of cells, %: 90.2 ± 3.3%
[4]; 10 μg/ml
  Metabolic activity of cells, %: 45 ± 4.7%
[4]; 20 μg/ml
  Metabolic activity of cells, %: 24.2 ± 0.8%
[4]; 38 μg/ml
  Metabolic activity of cells, %: 19.1 ± 1.9%
[4]; 75 μg/ml
  Metabolic activity of cells, %: 18.5 ± 0.4%
[4]; 150 μg/ml
  Metabolic activity of cells, %: 0%

## N.N.[Cl][Pt][Cl] [cisplatin]
[1]; cisplatinum 0.5 μg/ml alone
  % surviving MM-4 cells: 84 ± 3.3%
[1]; cisplatinum 1 μg/ml alone
  % surviving MM-4 cells: 51.7 ± 6.9%
[1]; cisplatinum 2.5 μg/ml alone
  % surviving MM-4 cells: 24.6 ± 5.2%
[1]; cisplatinum 5 μg/ml alone
  % surviving MM-4 cells: 13.8 ± 1.2%
[1]; cisplatinum 10 μg/ml alone
  % surviving MM-4 cells: 2.6 ± 1.4%
[2]; cisplatin 0.5 μg/ml
  Number of cells after their treatment with the drug, %: 84 ± 3.3%
[2]; cisplatin 1.0 μg/ml
  Number of cells after their treatment with the drug, %: 51.7 ± 6.9%
[2]; cisplatin 2.5 μg/ml
  Number of cells after their treatment with the drug, %: 24.6 ± 5.2%
[2]; cisplatin 5 μg/ml
  Number of cells after their treatment with the drug, %: 13.8 ± 1.2%
[2]; cisplatin 10 μg/ml
  Number of cells after their treatment with the drug, %: 2.6 ± 1.4%
[3]; cisplatinum 0.5 μg/ml alone, first stage
  % surviving MM-4 cells: 84 ± 3.3%
[3]; cisplatinum 0.5 μg/ml alone, second stage
  % surviving MM-4 cells: 84.6 ± 3.5%
[3]; cisplatinum 1 μg/ml alone, first stage
  % surviving MM-4 cells: 51.7 ± 6.9%
[3]; cisplatinum 1 μg/ml alone, second stage
  % surviving MM-4 cells: 70 ± 3.6%
[3]; cisplatinum 2.5 μg/ml alone, first stage
  % surviving MM-4 cells: 24.6 ± 5.2%
[3]; cisplatinum 2.5 μg/ml alone, second stage
  % surviving MM-4 cells: 34 ± 2.6%
[3]; cisplatinum 5 μg/ml alone, first stage
  % surviving MM-4 cells: 13.8 ± 1.2%
[3]; cisplatinum 5 μg/ml alone, second stage
  % surviving MM-4 cells: 35.2 ± 3.3%
[3]; cisplatinum 10 μg/ml alone, first stage
  % surviving MM-4 cells: 2.6 ± 1.4%
[3]; cisplatinum 10 μg/ml alone, second stage
  % surviving MM-4 cells: 19.4 ± 0.9%
